In patent publication US10981911B2, “Imidazopyrrolopyridine as inhibitors of the JAK family of kinases” (Janssen Pharmaceutica NV, priority 2016, dated 2021):

Tests used:
Type in all cases: biochemical
JAK1-JH1JH2 = JAK1-JH1JH2 (Homo sapiens (Human), UniProt P23458); test: Enzymatic inhibition assay (RapidFire HTMS), JAK1; conditions: 12.5 μM ATP, 200 μM substrate; read-out: JAK1-JH2JH1 IC50
Procedure, shortened: (§1)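 Quenched with 0.5% TFA plus internal-standard peptide; phosphorylated product quantified by RapidFire C4 SPE–ESI-MS, 11-point 1:3 or 1:4 dilutions in duplicate.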

JAK3-JH1JH2 = JAK3-JH1JH2 (Homo sapiens (Human), UniProt P52333); test: Enzymatic inhibition assay (RapidFire HTMS), JAK3; conditions: 150 μM ATP, 40 μM substrate
Sequence of JAK3-JH1JH2 (P52333 512-1124): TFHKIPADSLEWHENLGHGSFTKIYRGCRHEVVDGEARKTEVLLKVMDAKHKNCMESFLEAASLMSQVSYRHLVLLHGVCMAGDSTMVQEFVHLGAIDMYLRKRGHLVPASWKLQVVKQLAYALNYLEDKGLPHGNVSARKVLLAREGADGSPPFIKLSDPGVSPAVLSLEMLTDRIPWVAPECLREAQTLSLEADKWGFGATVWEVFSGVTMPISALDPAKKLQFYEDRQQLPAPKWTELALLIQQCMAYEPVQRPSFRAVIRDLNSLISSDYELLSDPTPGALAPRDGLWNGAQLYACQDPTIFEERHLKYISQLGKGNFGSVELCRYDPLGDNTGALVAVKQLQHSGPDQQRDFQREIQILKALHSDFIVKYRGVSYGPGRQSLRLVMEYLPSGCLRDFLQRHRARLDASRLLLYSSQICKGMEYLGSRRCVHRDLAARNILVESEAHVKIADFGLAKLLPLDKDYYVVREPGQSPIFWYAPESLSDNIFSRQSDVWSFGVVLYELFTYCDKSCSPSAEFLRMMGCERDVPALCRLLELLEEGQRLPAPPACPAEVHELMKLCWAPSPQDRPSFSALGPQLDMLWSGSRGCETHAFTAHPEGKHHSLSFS
Procedure, shortened: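 Compounds tested in duplicate over 11-point 1:3 or 1:4 dilution series; no-enzyme wells as negative control. After 45 min at 25 °C, TFA quench with internal standard, and phosphorylated product quantified by RapidFire–QTrap mass spectrometry relative to the uninhibited reaction.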

JAK2-JH1JH2 = JAK2-JH1JH2 (Homo sapiens (Human), UniProt O60674); test: Enzymatic inhibition assay (RapidFire HTMS), JAK2; conditions: 30 μM ATP, 40 μM substrate
Sequence of JAK2-JH1JH2 (O60674 532-1132): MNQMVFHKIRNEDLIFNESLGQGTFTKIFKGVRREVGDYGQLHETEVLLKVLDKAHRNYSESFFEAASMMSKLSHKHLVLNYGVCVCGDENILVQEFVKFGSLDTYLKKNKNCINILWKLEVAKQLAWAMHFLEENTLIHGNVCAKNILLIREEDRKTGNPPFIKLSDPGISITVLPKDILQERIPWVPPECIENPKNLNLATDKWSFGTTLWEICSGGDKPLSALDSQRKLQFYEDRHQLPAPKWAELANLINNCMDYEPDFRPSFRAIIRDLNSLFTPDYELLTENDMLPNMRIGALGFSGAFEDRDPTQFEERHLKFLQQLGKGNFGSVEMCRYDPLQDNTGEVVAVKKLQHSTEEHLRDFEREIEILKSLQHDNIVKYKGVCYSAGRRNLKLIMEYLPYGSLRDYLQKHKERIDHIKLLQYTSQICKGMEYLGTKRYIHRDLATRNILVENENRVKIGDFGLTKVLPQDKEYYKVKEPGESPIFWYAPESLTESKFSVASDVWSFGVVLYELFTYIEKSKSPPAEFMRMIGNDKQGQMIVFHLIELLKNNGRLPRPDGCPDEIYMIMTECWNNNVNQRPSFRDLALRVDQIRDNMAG
Procedure, shortened: as §1

Tyk2-JH1JH2 = Tyk2-JH1JH2 (Homo sapiens (Human), UniProt P29597, C1142A/C936A); test: Enzymatic inhibition assay (RapidFire HTMS), Tyk2; conditions: 50 μM ATP, 200 μM substrate
Sequence of Tyk2-JH1JH2 (P29597 580-1182 C936A/C1142A): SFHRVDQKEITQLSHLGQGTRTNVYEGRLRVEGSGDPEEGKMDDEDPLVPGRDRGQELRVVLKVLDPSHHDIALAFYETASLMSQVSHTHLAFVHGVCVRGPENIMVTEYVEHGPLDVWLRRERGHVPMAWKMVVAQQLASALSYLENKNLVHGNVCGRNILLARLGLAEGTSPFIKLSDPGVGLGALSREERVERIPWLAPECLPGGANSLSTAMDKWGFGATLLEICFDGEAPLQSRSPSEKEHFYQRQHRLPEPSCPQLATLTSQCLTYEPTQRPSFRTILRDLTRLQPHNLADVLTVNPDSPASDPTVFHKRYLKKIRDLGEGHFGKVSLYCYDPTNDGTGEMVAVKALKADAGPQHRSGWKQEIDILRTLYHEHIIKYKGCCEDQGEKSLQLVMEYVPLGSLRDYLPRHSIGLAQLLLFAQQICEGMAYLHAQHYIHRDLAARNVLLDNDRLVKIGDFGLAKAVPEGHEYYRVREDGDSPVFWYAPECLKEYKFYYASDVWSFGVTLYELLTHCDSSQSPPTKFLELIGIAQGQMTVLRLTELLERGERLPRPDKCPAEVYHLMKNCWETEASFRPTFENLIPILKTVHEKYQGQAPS
Procedure, shortened: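 Compounds were tested in duplicate as 11-point 1:3 or 1:4 DMSO dilutions (≤0.25% DMSO final) in 20 μL reactions at 25 °C for 90 min, with Tyk2 pre-incubated 30 min with 2 mM ATP. Reactions were quenched with TFA plus internal standard peptide, and phosphorylated product was quantified by RapidFire C4 SPE–ESI MS.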

Sequence of JAK1-JH1JH2 (P23458 574-1154): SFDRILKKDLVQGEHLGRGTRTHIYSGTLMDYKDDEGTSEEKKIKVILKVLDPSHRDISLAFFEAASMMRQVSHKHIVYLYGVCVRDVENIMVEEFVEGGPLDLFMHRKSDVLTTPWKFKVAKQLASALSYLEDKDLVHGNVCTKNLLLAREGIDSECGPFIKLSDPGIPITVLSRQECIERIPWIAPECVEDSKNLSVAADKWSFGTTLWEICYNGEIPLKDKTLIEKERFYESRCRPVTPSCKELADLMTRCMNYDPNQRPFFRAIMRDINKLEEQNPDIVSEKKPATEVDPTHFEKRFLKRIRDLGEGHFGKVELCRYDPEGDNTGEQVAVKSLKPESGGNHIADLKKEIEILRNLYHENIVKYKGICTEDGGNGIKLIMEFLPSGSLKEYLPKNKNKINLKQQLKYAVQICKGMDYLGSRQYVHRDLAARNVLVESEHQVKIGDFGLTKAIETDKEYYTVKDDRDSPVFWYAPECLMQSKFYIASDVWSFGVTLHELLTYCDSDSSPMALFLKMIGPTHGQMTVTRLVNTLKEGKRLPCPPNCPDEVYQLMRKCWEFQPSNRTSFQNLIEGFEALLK

SMILES: COCC/C(N)=N/OCc1nc2cnc3[nH]ccc3c2n1[C@H]1CC[C@H](CC#N)CC1 [Ex. 72, (Z*)—N-((1-((1r,4r)-4-(Cyanomethyl)cyclohexyl)-1,6-dihydroimidazo[4,5-d]pyrrolo[2,3-b]pyridin-2-yl)methoxy)-3-methoxypropanimidamide]
- IC50 (JAK1-JH1JH2): 0.4 nM
- IC50 (JAK3-JH1JH2): 181 nM
- IC50 (JAK2-JH1JH2): 5.2 nM
- IC50 (Tyk2-JH1JH2): 27.2 nM

SMILES: N#CC[C@H]1CC[C@H](n2c(C3CNC3)nc3cnc4[nH]ccc4c32)CC1 [Ex. 159, 2-((1r,4r)-4-(2-(Azetidin-3-yl)imidazo[4,5-d]pyrrolo[2,3-b]pyridin-1(6H)-yl)cyclohexyl)acetonitrile]
- IC50 (JAK1-JH1JH2): 1.6 nM
- IC50 (JAK3-JH1JH2): 1230 nM
- IC50 (JAK2-JH1JH2): 57 nM
- IC50 (Tyk2-JH1JH2): 19 nM

SMILES: N#CC[C@H]1CC[C@H](n2c(-c3cnc(N)nc3)nc3cnc4[nH]ccc4c32)CC1 [Ex. 51, 2-((1r,4r)-4-(2-(2-Aminopyrimidin-5-yl)imidazo[4,5-d]pyrrolo[2,3-b]pyridin-1(6H)-yl)cyclohexyl)acetonitrile]
- IC50 (JAK1-JH1JH2): 0.2 nM
- IC50 (JAK3-JH1JH2): 127 nM
- IC50 (JAK2-JH1JH2): 3.2 nM
- IC50 (Tyk2-JH1JH2): 5.8 nM

SMILES: CS(=O)(=O)N1CC(c2nc3cnc4[nH]ccc4c3n2[C@H]2CC[C@H](CC#N)CC2)C1 [Ex. 134, 2-((1r,4r)-4-(2-(1-(Methylsulfonyl)azetidin-3-yl)imidazo[4,5-d]pyrrolo[2,3-b]pyridin-1(6H)-yl)cyclohexyl)acetonitrile]
- IC50 (JAK1-JH1JH2): 0.8 nM
- IC50 (JAK3-JH1JH2): 1290 nM
- IC50 (JAK2-JH1JH2): 118 nM
- IC50 (Tyk2-JH1JH2): 91.2 nM

SMILES: CN1CCC(NC(=O)Cc2nc3cnc4[nH]ccc4c3n2[C@H]2CC[C@H](CC#N)CC2)CC1 [Ex. 66, 2-(1-((1r,4r)-4-(Cyanomethyl)cyclohexyl)-1,6-dihydroimidazo[4,5-d]pyrrolo[2,3-b]pyridin-2-yl)-N-(1-methylpiperidin-4-yl)acetamide]
- IC50 (JAK1-JH1JH2): 0.3 nM
- IC50 (JAK3-JH1JH2): 18.9 nM
- IC50 (JAK2-JH1JH2): 2.5 nM
- IC50 (Tyk2-JH1JH2): 2.8 nM

SMILES: CC(C)/C(=N/O)NCc1nc2cnc3[nH]ccc3c2n1[C@H]1CC[C@H](CC#N)CC1 [Ex. 61, (EZ)—N-((1-((1r,4r)-4-(cyanomethyl)cyclohexyl)-1,6-dihydroimidazo[4,5-d]pyrrolo[2,3-b]pyridin-2-yl)methyl)-N-hydroxyisobutyrimidamide]
- IC50 (JAK1-JH1JH2): 0.3 nM
- IC50 (JAK3-JH1JH2): 219 nM
- IC50 (JAK2-JH1JH2): 25.7 nM
- IC50 (Tyk2-JH1JH2): 6.3 nM

SMILES: CC(C)NC(=O)NCc1nc2cnc3[nH]ccc3c2n1[C@H]1CC[C@H](CC#N)CC1 [Ex. 171, 1-((1-((1r,4r)-4-(Cyanomethyl)cyclohexyl)-1,6-dihydroimidazo[4,5-d]pyrrolo[2,3-b]pyridin-2-yl)methyl)-3-isopropylurea]
- IC50 (JAK1-JH1JH2): 2 nM
- IC50 (JAK3-JH1JH2): 211 nM
- IC50 (JAK2-JH1JH2): 33.9 nM
- IC50 (Tyk2-JH1JH2): 18.8 nM

SMILES: N#CCCC(=O)NCc1nc2cnc3[nH]ccc3c2n1[C@H]1CC[C@H](CC#N)CC1 [Ex. 157, 3-Cyano-N-((1-((1r,4r)-4-(cyanomethyl)cyclohexyl)-1,6-dihydroimidazo[4,5-d]pyrrolo[2,3-b]pyridin-2-yl)methyl)propanamide]
- IC50 (JAK1-JH1JH2): 1.4 nM
- IC50 (JAK3-JH1JH2): 1110 nM
- IC50 (JAK2-JH1JH2): 74.9 nM
- IC50 (Tyk2-JH1JH2): 39.5 nM

SMILES: CNc1nccc(-c2nc3cnc4[nH]ccc4c3n2[C@H]2CC[C@H](CC#N)CC2)n1 [Ex. 89, 2-((1r,4r)-4-(2-(2-(Methylamino)pyrimidin-4-yl)imidazo[4,5-d]pyrrolo[2,3-b]pyridin-1(6H)-yl)cyclohexyl)acetonitrile]
- IC50 (JAK1-JH1JH2): 0.4 nM
- IC50 (JAK3-JH1JH2): 60.6 nM
- IC50 (JAK2-JH1JH2): 3.4 nM
- IC50 (Tyk2-JH1JH2): 18 nM

SMILES: N#CC[C@H]1CC[C@H](n2c(CC(=O)NCCOc3ccncc3)nc3cnc4[nH]ccc4c32)CC1 [Ex. 43, 2-(1-((1r,4r)-4-(Cyanomethyl)cyclohexyl)-1,6-dihydroimidazo[4,5-d]pyrrolo[2,3-b]pyridin-2-yl)-N-(2-(pyridin-4-yloxy)ethyl)acetamide]
- IC50 (JAK1-JH1JH2): 0.2 nM
- IC50 (JAK3-JH1JH2): 87.4 nM
- IC50 (JAK2-JH1JH2): 5.1 nM
- IC50 (Tyk2-JH1JH2): 5.7 nM

SMILES: N#CC[C@H]1CC[C@H](n2c(COC(=O)NC34CC5CC(CC(C5)C3)C4)nc3cnc4[nH]ccc4c32)CC1 [Ex. 196, (1-((1r,4r)-4-(Cyanomethyl)cyclohexyl)-1,6-dihydroimidazo[4,5-d]pyrrolo[2,3-b]pyridin-2-yl)methyl (3S,5S,7S)-adamantan-1-ylcarbamate]
- IC50 (JAK1-JH1JH2): 3.4 nM
- IC50 (JAK3-JH1JH2): 660 nM
- IC50 (JAK2-JH1JH2): 41.4 nM
- IC50 (Tyk2-JH1JH2): 41.8 nM

SMILES: N#CC[C@H]1CC[C@H](n2c(CC(=O)N3CC[C@@H](O)C3)nc3cnc4[nH]ccc4c32)CC1 [Ex. 127, 2-((1r,4r)-4-(2-(2-((R)-3-Hydroxypyrrolidin-1-yl)-2-oxoethyl)imidazo[4,5-d]pyrrolo[2,3-b]pyridin-1(6H)-yl)cyclohexyl)acetonitrile]
- IC50 (JAK1-JH1JH2): 0.7 nM
- IC50 (JAK3-JH1JH2): 788 nM
- IC50 (JAK2-JH1JH2): 69.4 nM
- IC50 (Tyk2-JH1JH2): 12.8 nM

SMILES: N#CC[C@H]1CC[C@H](n2c(-c3ccc(C(=O)c4ccc(CO)cc4)cc3)nc3cnc4[nH]ccc4c32)CC1 [Ex. 121, 2-((1r,4r)-4-(2-(4-(4-(Hydroxymethyl)benzoyl)phenyl)imidazo[4,5-d]pyrrolo[2,3-b]pyridin-1(6H)-yl)cyclohexyl)acetonitrile]
- IC50 (JAK1-JH1JH2): 0.7 nM
- IC50 (JAK3-JH1JH2): 431 nM
- IC50 (JAK2-JH1JH2): 11.4 nM
- IC50 (Tyk2-JH1JH2): 44.3 nM

SMILES: N#CC[C@H]1CC[C@H](n2c(CC(=O)Nc3ccncc3)nc3cnc4[nH]ccc4c32)CC1 [Ex. 118, 2-(1-((1r,4r)-4-(Cyanomethyl)cyclohexyl)-1,6-dihydroimidazo[4,5-d]pyrrolo[2,3-b]pyridin-2-yl)-N-(pyridin-4-yl)acetamide]
- IC50 (JAK1-JH1JH2): 0.7 nM
- IC50 (JAK3-JH1JH2): 50.5 nM
- IC50 (JAK2-JH1JH2): 3.5 nM
- IC50 (Tyk2-JH1JH2): 5.4 nM

SMILES: COCC/C(=N/O)NCc1nc2cnc3[nH]ccc3c2n1[C@H]1CC[C@H](CC#N)CC1 [Ex. 125]
- IC50 (JAK1-JH1JH2): 0.7 nM
- IC50 (JAK3-JH1JH2): 622 nM
- IC50 (JAK2-JH1JH2): 27.1 nM
- IC50 (Tyk2-JH1JH2): 14.9 nM

SMILES: N#CC[C@H]1CC[C@H](n2c(CNS(=O)(=O)c3ccc(C#N)cc3)nc3cnc4[nH]ccc4c32)CC1 [Ex. 97, 4-Cyano-N-((1-((1r,4r)-4-(cyanomethyl)cyclohexyl)-1,6-dihydroimidazo[4,5-d]pyrrolo[2,3-b]pyridin-2-yl)methyl)benzenesulfonamide]
- IC50 (JAK1-JH1JH2): 0.5 nM
- IC50 (JAK3-JH1JH2): 3880 nM
- IC50 (JAK2-JH1JH2): 45.1 nM
- IC50 (Tyk2-JH1JH2): 26.9 nM

SMILES: N#CC[C@H]1CC[C@H](n2c(CC(=O)NC3CC4CCC3C4)nc3cnc4[nH]ccc4c32)CC1 (stereo partly drawn) [Ex. 78, N-((1S,4R)-Bicyclo[2.2.1]heptan-2-yl)-2-(1-((1r,4r)-4-(cyanomethyl)cyclohexyl)-1,6-dihydroimidazo[4,5-d]pyrrolo[2,3-b]pyridin-2-yl)acetamide]
- IC50 (JAK1-JH1JH2): 0.4 nM
- IC50 (JAK3-JH1JH2): 69.4 nM
- IC50 (JAK2-JH1JH2): 11.2 nM
- IC50 (Tyk2-JH1JH2): 13.4 nM

SMILES: N#CC[C@H]1CC[C@H](n2c(-c3n[nH]cc3Cl)nc3cnc4[nH]ccc4c32)CC1 [Ex. 31, 2-((1r,4r)-4-(2-(4-Chloro-1H-pyrazol-3-yl)imidazo[4,5-d]pyrrolo[2,3-b]pyridin-1(6H)-yl)cyclohexyl)acetonitrile]
- IC50 (JAK1-JH1JH2): 0.2 nM
- IC50 (JAK3-JH1JH2): 121 nM
- IC50 (JAK2-JH1JH2): 5.5 nM
- IC50 (Tyk2-JH1JH2): 3.7 nM

SMILES: N#CC[C@H]1CC[C@H](n2c(C(=O)NC3CCOCC3)nc3cnc4[nH]ccc4c32)CC1 [Ex. 178, 1-((1r,4r)-4-(Cyanomethyl)cyclohexyl)-N-(tetrahydro-2H-pyran-4-yl)-1,6-dihydroimidazo[4,5-d]pyrrolo[2,3-b]pyridine-2-carboxamide]
- IC50 (JAK1-JH1JH2): 3.1 nM
- IC50 (JAK3-JH1JH2): 1310 nM
- IC50 (JAK2-JH1JH2): 60 nM
- IC50 (Tyk2-JH1JH2): 42.2 nM

SMILES: N#CC[C@H]1CC[C@H](n2c(CC(=O)N3CCS(=O)(=O)CC3)nc3cnc4[nH]ccc4c32)CC1 [Ex. 67, 2-((1r,4r)-4-(2-(2-(1,1-Dioxidothiomorpholino)-2-oxoethyl)imidazo[4,5-d]pyrrolo[2,3-b]pyridin-1(6H)-yl)cyclohexyl)acetonitrile]
- IC50 (JAK1-JH1JH2): 0.3 nM
- IC50 (JAK3-JH1JH2): 121 nM
- IC50 (JAK2-JH1JH2): 12.3 nM
- IC50 (Tyk2-JH1JH2): 3.8 nM

SMILES: CC(C)(O)CNC(=O)Cc1nc2cnc3[nH]cc(Br)c3c2n1[C@H]1CC[C@H](CC#N)CC1 [Ex. 189, 2-(8-bromo-1-((1r,4r)-4-(cyanomethyl)cyclohexyl)-1,6-dihydroimidazo[4,5-d]pyrrolo[2,3-b]pyridin-2-yl)-N-(2-hydroxy-2-methylpropyl)acetamide]
- IC50 (JAK1-JH1JH2): 3.4 nM
- IC50 (JAK3-JH1JH2): 16.6 nM
- IC50 (JAK2-JH1JH2): 42.3 nM
- IC50 (Tyk2-JH1JH2): 182 nM

SMILES: N#CC[C@H]1CC[C@H](n2c(CC(=O)NC34CCC(C#N)(CC3)C4)nc3cnc4[nH]ccc4c32)CC1 [Ex. 23, N-(4-Cyanobicyclo[2.2.1]heptan-1-yl)-2-(1-((1r,4r)-4-(cyanomethyl)cyclohexyl)-1,6-dihydroimidazo[4,5-d]pyrrolo[2,3-b]pyridin-2-yl)acetamide]
- IC50 (JAK1-JH1JH2): 0.1 nM
- IC50 (JAK3-JH1JH2): 38.1 nM
- IC50 (JAK2-JH1JH2): 1.4 nM
- IC50 (Tyk2-JH1JH2): 3.5 nM

SMILES: CC(C)(O)CNC(=O)Cc1nc2cnc3[nH]cc(F)c3c2n1[C@H]1CC[C@H](CC#N)CC1 [Ex. 132, 2-(1-((1r,4r)-4-(Cyanomethyl)cyclohexyl)-8-fluoro-1,6-dihydroimidazo[4,5-d]pyrrolo[2,3-b]pyridin-2-yl)-N-(2-hydroxy-2-methylpropyl)acetamide]
- IC50 (JAK1-JH1JH2): 0.8 nM
- IC50 (JAK3-JH1JH2): 61.7 nM
- IC50 (JAK2-JH1JH2): 13.8 nM
- IC50 (Tyk2-JH1JH2): 16.1 nM

SMILES: N#CCC12CCC(n3c(CC(=O)Nc4ccccc4)nc4cnc5[nH]ccc5c43)(CC1)CC2 [Ex. 207, 2-(1-(4-(Cyanomethyl)bicyclo[2.2.2]octan-1-yl)-1,6-dihydroimidazo[4,5-d]pyrrolo[2,3-b]pyridin-2-yl)-N-phenylacetamide]
- IC50 (JAK1-JH1JH2): 6.8 nM
- IC50 (JAK3-JH1JH2): 375 nM
- IC50 (JAK2-JH1JH2): 198 nM
- IC50 (Tyk2-JH1JH2): 524 nM
